Reference: paper PMC7587356, “High-Throughput Screening for Inhibitors of the SARS-CoV-2 Protease Using a FRET-Biosensor” (Molecules, 2020)
Counter-ions that a name gives are not always drawn. Like-named read-outs stand apart in the source and are kept apart here.

Molecular target: SARS-CoV-2 3CLpro (Severe acute respiratory syndrome coronavirus 2, UniProt P0DTD1)
Assay: biochemical
Type: biochemical
Design: Replicate_1 / Replicate_2 / mean / mean (LOPAC_screen_w_protease): unit not given here
Details: for inhibition at 5 µM: 4 h
[1] = LOPAC1280 primary screen with protease, 5 µM compound, mean of the two replicates
[2] = LOPAC1280 primary screen with protease, 5 µM compound, replicate 1
[3] = LOPAC1280 primary screen with protease, 5 µM compound, replicate 2
[4] = sheet LOPAC_screen_w_protease, primary screen with protease, mean of two replicates, read-out: mean
[5] = sheet LOPAC_screen_w_protease, primary screen with protease, replicate 1, read-out: Replicate_1
[6] = sheet LOPAC_screen_w_protease, primary screen with protease, replicate 2, read-out: Replicate_2
[7] = sheet LOPAC_screen_w_protease, primary screen with protease, compound at 5 µM, mean of two replicates
[8] = sheet LOPAC_screen_w_protease, primary screen with protease, compound at 5 µM, replicate 1
[9] = sheet LOPAC_screen_w_protease, primary screen with protease, compound at 5 µM, replicate 2
[10] = LOPAC1280 primary screen with protease, 5 µM compound, replicate 1, read-out: Replicate_1 (LOPAC_screen_w_protease)
[11] = LOPAC1280 primary screen with protease, 5 µM compound, replicate 2, read-out: Replicate_2 (LOPAC_screen_w_protease)

C[N+]1(C)CCOC(O)(c2ccc(-c3ccc(C4(O)C[N+](C)(C)CCO4)cc3)cc2)C1 (stereo not drawn) [Hemicholinium-3]
inhibition at 5 µM (sheet LOPAC_screen_w_protease, primary screen with protease, compound at 5 µM, mean of two replicates, read-out: mean): 2.72%
inhibition at 5 µM (sheet LOPAC_screen_w_protease, primary screen with protease, compound at 5 µM, replicate 1, read-out: Replicate_1): 4.37%
inhibition at 5 µM (sheet LOPAC_screen_w_protease, primary screen with protease, compound at 5 µM, replicate 2, read-out: Replicate_2): 1.08%

C[N+](C)(C)CCCCCC[N+](C)(C)C [Hexamethonium bromide]
inhibition at 5 µM (sheet LOPAC_screen_w_protease, primary screen with protease, 5 µM, mean of two replicates, read-out: mean): 0.248%
inhibition at 5 µM (sheet LOPAC_screen_w_protease, primary screen with protease, 5 µM, replicate 1, read-out: Replicate_1): 1.66%
inhibition at 5 µM (sheet LOPAC_screen_w_protease, primary screen with protease, 5 µM, replicate 2, read-out: Replicate_2): -1.17%

C[N+](C)(C)CCCCCC[N+](C)(C)C.[Cl-].[Cl-] [Hexamethonium dichloride]
mean (LOPAC_screen_w_protease) [1]: 1.868
Replicate_1 (LOPAC_screen_w_protease) [2]: 3.928
Replicate_2 (LOPAC_screen_w_protease) [3]: -0.1911

NCCc1c[nH]cn1 [Histamine dihydrochloride]
inhibition at 5 µM (read-out: Replicate_1): 3.24%
inhibition at 5 µM (read-out: Replicate_2): -1.24%
inhibition at 5 µM (read-out: mean): 1%

NNc1nncc2ccccc12 [Hydralazine hydrochloride]
inhibition at 5 µM (read-out: Replicate_1): 4.76%
inhibition at 5 µM (read-out: Replicate_2): 1.31%
inhibition at 5 µM (read-out: mean): 3.03%

NS(=O)(=O)c1cc2c(cc1Cl)NCNS2(=O)=O [Hydrochlorothiazide]
inhibition at 5 µM [4]: 2.22%
inhibition at 5 µM [5]: 3.63%
inhibition at 5 µM [6]: 0.799%

C[C@]12CCC(=O)C=C1CC[C@@H]1[C@@H]2[C@@H](O)C[C@@]2(C)[C@H]1CC[C@]2(O)C(=O)COC(=O)CCC(=O)[O-].[Na+] [Hydrocortisone 21-hemisuccinate sodium]
mean (sheet LOPAC_screen_w_protease, LOPAC1280 at 5 µM, mean of two replicates): 1.066
Replicate_1 (sheet LOPAC_screen_w_protease, LOPAC1280 at 5 µM, replicate 1): 1.635
Replicate_2 (sheet LOPAC_screen_w_protease, LOPAC1280 at 5 µM, replicate 2): 0.4974

C[C@]12CCC(=O)C=C1CC[C@@H]1[C@@H]2[C@@H](O)C[C@@]2(C)[C@H]1CC[C@]2(O)C(=O)CO [Hydrocortisone]
inhibition at 5 µM (sheet LOPAC_screen_w_protease, LOPAC1280 at 5 µM, mean of two replicates, read-out: mean): 1.15%
inhibition at 5 µM (sheet LOPAC_screen_w_protease, LOPAC1280 at 5 µM, replicate 1, read-out: Replicate_1): 2.23%
inhibition at 5 µM (sheet LOPAC_screen_w_protease, LOPAC1280 at 5 µM, replicate 2, read-out: Replicate_2): 0.0692%

Oc1ccc(O)cc1 [Hydroquinone]
inhibition at 5 µM (read-out: Replicate_1): 3.41%
inhibition at 5 µM (read-out: Replicate_2): -0.951%
inhibition at 5 µM (read-out: mean): 1.23%

Nc1c2c(nc3ccccc13)CCCC2O.O=C(O)/C=C\C(=O)O (stereo not drawn) [Hydroxytacrine maleate]
mean (sheet LOPAC_screen_w_protease, primary screen with protease, mean of two replicates): 2.348
Replicate_1 (sheet LOPAC_screen_w_protease, primary screen with protease, replicate 1): 3.064
Replicate_2 (sheet LOPAC_screen_w_protease, primary screen with protease, replicate 2): 1.632

NC(=O)NO [Hydroxyurea]
mean [7]: 2.8429
Replicate_1 [8]: 4.9936
Replicate_2 [9]: 0.6922

NCCS(=O)O [Hypotaurine]
inhibition at 5 µM [10]: 4.13%
inhibition at 5 µM [11]: -0.407%
mean (LOPAC_screen_w_protease) [1]: 1.861

COc1cc(/C=C(\C#N)C(=O)c2ccc(O)c(O)c2)cc(I)c1O [I-OMe-Tyrphostin AG 538]
mean [7]: 2.606
Replicate_1 [8]: 2.231
Replicate_2 [9]: 2.982

CNC(=O)[C@H]1O[C@@H](n2cnc3c(NCc4cccc(I)c4)ncnc32)[C@H](O)[C@@H]1O [IB-MECA]
inhibition at 5 µM [4]: 2.39%
inhibition at 5 µM [5]: 2.72%
inhibition at 5 µM [6]: 2.06%

COc1cc(OC)c(C=C2C(O)=Nc3ccccc32)c(OC)c1 [IC 261]
inhibition at 5 µM [10]: 1.63%
inhibition at 5 µM [11]: 1.3%
mean (LOPAC_screen_w_protease) (LOPAC1280 primary screen with protease, 5 µM compound, mean of two replicates): 1.465

Cc1ccc(OCC(O)C(C)NC(C)C)c2c1CCC2.Cl (stereo not drawn) [ICI 118,551 hydrochloride]
mean (LOPAC_screen_w_protease) [1]: 1.851
Replicate_1 (LOPAC_screen_w_protease) [2]: 3.391
Replicate_2 (LOPAC_screen_w_protease) [3]: 0.3114

CN(C(=O)Cc1ccc(Cl)c(Cl)c1)C(CN1CCCC1)c1cccc(OCC(=O)O)c1.Cl (stereo not drawn) [ICI 204,448 hydrochloride]
mean (LOPAC_screen_w_protease) [1]: 1.925
Replicate_1 (LOPAC_screen_w_protease) [2]: 3.897
Replicate_2 (LOPAC_screen_w_protease) [3]: -0.04714

Br.C[N+](C)(C)CCCCCNCC12CC3CC(CC(C3)C1)C2.[Br-] [IEM-1460]
mean (sheet LOPAC_screen_w_protease, primary screen with protease, 5 µM, mean of two replicates): 0.3994
Replicate_1 (sheet LOPAC_screen_w_protease, primary screen with protease, 5 µM, replicate 1): 0.5263
Replicate_2 (sheet LOPAC_screen_w_protease, primary screen with protease, 5 µM, replicate 2): 0.2724

CCCC(=O)NCCc1c2n(c3ccc(OC)cc13)Cc1ccccc1-2 [IIK7]
mean (sheet LOPAC_screen_w_protease, primary screen of LOPAC1280 at 5 µM with protease, mean of the two replicates): 3.902
Replicate_1 (sheet LOPAC_screen_w_protease, primary screen of LOPAC1280 at 5 µM with protease, replicate 1): 5.727
Replicate_2 (sheet LOPAC_screen_w_protease, primary screen of LOPAC1280 at 5 µM with protease, replicate 2): 2.078
